Data: paper PMC10466331, “Fluorescence polarisation activity-based protein profiling for the identification of deoxynojirimycin-type inhibitors selective for lysosomal retaining alpha- and beta-glucosidases” (Chemical Science, 2023)
Read-outs that look alike come from different tables or passages of the source.

What was measured:
[1] = biological target: T1, recombinant human GBA1 (rhGBA1, Cerezyme) (Homo sapiens, UniProt P04062, R534H); test: competitive FluoPol-ABPP assay on rhGBA1 with TAMRA-ABP I; assay type: biochemical; settings: library screen, 5 μM inhibitor, 5 nM ABP I
T1 construct: purchased Genzyme
T1 sequence (P04062 40-536 R534H): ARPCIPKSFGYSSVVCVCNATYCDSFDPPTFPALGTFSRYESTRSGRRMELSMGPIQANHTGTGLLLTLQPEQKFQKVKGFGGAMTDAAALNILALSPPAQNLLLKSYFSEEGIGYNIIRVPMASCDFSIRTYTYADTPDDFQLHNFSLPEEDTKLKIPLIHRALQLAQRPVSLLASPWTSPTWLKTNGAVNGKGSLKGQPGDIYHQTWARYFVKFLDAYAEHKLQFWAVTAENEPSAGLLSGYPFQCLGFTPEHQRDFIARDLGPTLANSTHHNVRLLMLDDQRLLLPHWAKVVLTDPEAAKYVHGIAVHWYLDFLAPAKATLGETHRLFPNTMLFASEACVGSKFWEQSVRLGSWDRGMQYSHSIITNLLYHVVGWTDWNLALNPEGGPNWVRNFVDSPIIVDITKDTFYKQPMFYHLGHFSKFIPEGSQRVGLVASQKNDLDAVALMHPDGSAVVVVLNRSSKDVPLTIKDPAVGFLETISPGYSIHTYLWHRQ

[2] = test system: retaining β-glucosidases GBA1, GBA2 and GBA3; test: SDS-gel activity-based protein profiling (in-gel fluorescence labelling); assay type: biochemical; settings: 500 nM probe, 30 min 37 °C
Procedure: Lysates of HEK293T GBA2 overexpressing and HEK293T GBA3 overexpressing cells[24] were prepared in 150 mM McIlvain buffer (pH = 5.0), supplemented with 0.25 M sucrose, 0.2% sodium taurocholate (w/v) and 0.1% Triton X-100 (v/v). The lysates were homogenized using sonication, after which the total protein concentration was determined via Pierce BCA Protein assay (ThermoFisher) using BSA (ThermoFisher) for standards. Samples (Vf = 20 μL) of an 1 : 1 mixture of GBA2 : GBA3 lysates containing 40 μg protein were incubated for 30 min at 37 °C with 500 nM ABP. Protein content was denatured using Laemmli Buffer (4×) at 98 °C for 5 min. Reactions were resolved by 7.5% SDS-PAGE electrophoresis and wet slabs were scanned for fluorescence (Typhoon FLA 9500, GE Healthcare).

[3] = biological target: T2, recombinant human GAA (rhGAA, Myozyme) (Homo sapiens, UniProt P10253); test: competitive FluoPol-ABPP assay on rhGAA with TAMRA-ABP II; assay type: biochemical; settings: library screen, 5 μM inhibitor, 25 nM ABP II;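 further: fluorescence polarization read at 540 nm excitation and 590 nm emission, background-corrected, normalized to uninhibited probe labelling as 100% and excess cyclosulfate as 0%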
T2 construct: purchased Genzyme

[4] = biological target: T3, human recombinant lysosomal α-glucosidase GAA (Myozyme) (Homo sapiens, UniProt P10253); test: fluorogenic substrate (4MU-α-D-glucopyranoside) assay on rhGAA; assay type: biochemical
T3 construct: purchased Genzyme

[5] = biological target: T4, ER α-glucosidase GANAB (from Pompe disease Fibroblast lysates) (Homo sapiens, UniProt Q14697); test: fluorogenic substrate (4MU-α-D-glucopyranoside) assay on GANAB in Pompe fibroblast homogenates; assay type: biochemical;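 further: inhibitor preincubated 30 min at 37 °C with homogenate, then GANAB activity read after 2 h with 3.0 mM fluorogenic substrate in McIlvaine buffer containing 0.1% BSA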
T4 construct: Cellular homogenates of Pompe fibroblasts (1 mg mL^−1) were used as protein source for GANAB; endogenous in cells; host or cells: Pompe disease fibroblasts (homogenate)
T4 sequence (Q14697 29-944): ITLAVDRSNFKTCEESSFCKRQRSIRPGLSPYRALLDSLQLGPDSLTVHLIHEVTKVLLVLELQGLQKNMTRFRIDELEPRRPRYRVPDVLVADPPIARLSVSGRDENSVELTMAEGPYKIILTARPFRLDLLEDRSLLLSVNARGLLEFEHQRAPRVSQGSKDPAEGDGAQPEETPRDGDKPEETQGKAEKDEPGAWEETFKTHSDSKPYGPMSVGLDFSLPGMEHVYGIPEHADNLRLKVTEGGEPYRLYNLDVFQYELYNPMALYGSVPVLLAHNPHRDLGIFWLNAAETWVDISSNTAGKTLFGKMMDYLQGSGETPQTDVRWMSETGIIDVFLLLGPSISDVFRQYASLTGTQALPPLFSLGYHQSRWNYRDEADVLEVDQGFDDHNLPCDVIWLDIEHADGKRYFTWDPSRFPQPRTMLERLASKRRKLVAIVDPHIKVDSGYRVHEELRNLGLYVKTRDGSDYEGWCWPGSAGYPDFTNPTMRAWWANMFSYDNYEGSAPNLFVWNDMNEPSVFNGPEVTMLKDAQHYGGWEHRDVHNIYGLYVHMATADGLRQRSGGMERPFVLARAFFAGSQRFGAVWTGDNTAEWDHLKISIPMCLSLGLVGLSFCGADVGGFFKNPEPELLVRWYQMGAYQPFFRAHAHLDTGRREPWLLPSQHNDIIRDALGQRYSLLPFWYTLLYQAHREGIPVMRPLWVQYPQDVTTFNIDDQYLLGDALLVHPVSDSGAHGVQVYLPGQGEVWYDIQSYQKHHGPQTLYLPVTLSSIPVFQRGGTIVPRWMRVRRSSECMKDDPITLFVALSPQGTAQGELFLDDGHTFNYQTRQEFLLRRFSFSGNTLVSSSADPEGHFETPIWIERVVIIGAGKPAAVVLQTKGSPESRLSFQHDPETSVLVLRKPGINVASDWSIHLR
T4 sequence (P14314 15-528 partner): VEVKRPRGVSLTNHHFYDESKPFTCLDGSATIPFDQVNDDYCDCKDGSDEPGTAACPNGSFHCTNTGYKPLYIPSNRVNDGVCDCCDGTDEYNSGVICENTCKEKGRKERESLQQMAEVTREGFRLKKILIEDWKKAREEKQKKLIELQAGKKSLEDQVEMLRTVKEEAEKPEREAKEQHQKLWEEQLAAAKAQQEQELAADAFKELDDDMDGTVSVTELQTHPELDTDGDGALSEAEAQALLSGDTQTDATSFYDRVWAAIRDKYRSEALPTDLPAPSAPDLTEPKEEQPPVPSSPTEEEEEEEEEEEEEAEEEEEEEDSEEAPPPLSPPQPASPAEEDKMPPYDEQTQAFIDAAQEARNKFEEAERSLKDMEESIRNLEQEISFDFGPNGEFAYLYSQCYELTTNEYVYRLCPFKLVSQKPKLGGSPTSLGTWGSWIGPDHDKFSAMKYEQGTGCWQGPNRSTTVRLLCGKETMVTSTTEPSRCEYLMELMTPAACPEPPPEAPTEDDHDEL

rhGBA1 (Cerezyme) = settings: read-out: IC50 GBA1; cited from earlier work
[6] = test system: GBA2 (GBA2-overexpressing HEK293T lysate); settings: cited from earlier work
[7] = test system: glucosylceramide synthase (GCS) (RAW 264.7 cells); settings: in situ; cited from earlier work
[8] = Table S2, 4-MU alpha glucoside substrate, read-out: IC50 on rhGAA
[9] = 4MU-α-glucoside substrate, pH 7.0, mean ± SD, 3 technical replicates, read-out: IC50 GANAB
[10] = Table S2, 4-MU alpha glucoside substrate, read-out: IC50 on GANAB

GAA FP% (residual FP-signal) [3] [%] | IC50 [4, 8] [nM] | IC50 [5, 10] [nM] | Compound | also measured
29 | 2460 | – | OC[C@H]1N[C@H](CCCCCCOCC23CC4CC(CC(C4)C2)C3)[C@H](O)[C@@H](O)[C@@H]1O [Compound 8] | inhibition at 5 µM [1]: > 90%
34 | 4000 | – | OC[C@H]1N[C@H](CCCCCOCC23CC4CC(CC(C4)C2)C3)[C@H](O)[C@@H](O)[C@@H]1O [Compound 14] | IC50 [5, 9]: > 100000 nM; IC50 (rhGBA1 (Cerezyme)): 70 nM; IC50 [6]: 300 nM; IC50 [7]: 50000 nM
– | 1200 | 8300 | OC[C@@H]1[C@@H](O)[C@H](O)[C@@H](O)CN1CCCCCOCc1ccc(-c2ccccc2)cc1 [Compound 6] | GAA FP% (residual FP-signal) ([3]; listed as 62): 3.8%; IC50 ([4]; 4MU-α-glucoside substrate, pH 4.0, mean ± SD, 3 technical replicates, read-out: IC50 GAA): 1180 ± 310 nM; IC50 [5, 9]: 8290 ± 170 nM

Continued, molecule first:

Compound | GAA FP% (residual FP-signal) [3] [%] | IC50 [4, 8] [nM] | IC50 [5, 10] [nM] | also measured
O[C@@H]1[C@@H](O)[C@@H](CCCCCCOCC23CC4CC(CC(C4)C2)C3)NC[C@H]1O [Compound 7] | – | – | – | inhibition at 5 µM [1]: > 90%
COC(=O)c1cc(C(=O)NCCCCc2cn(C[C@@H]3[C@@H](O)[C@H](O)[C@@H](O)[C@@H]4O[C@H]34)nn2)ccc1-c1c2ccc(=[N+](C)C)cc-2oc2cc(N(C)C)ccc12 [ABP I] | – | – | – | β-glucosidase labelling selectivity of the probe [2]: modifies exclusively GBA1
OC[C@@H]1[C@@H](O)[C@H](O)[C@@H](O)CN1CCCCCOCc1cc2ccccc2c2ccccc12 [Compound 15] | 25 | 110 | 2000 | IC50 [5, 9]: 1960 ± 40 nM; IC50 (rhGBA1 (Cerezyme)): 10000 nM; IC50 [6]: 100 nM; IC50 [7]: > 20000 nM
CCCCCCCCN1C[C@H](O)[C@@H](O)[C@H](O)[C@H]1CO [#ID 33] | – | – | – | GAA FP% (residual FP-signal) ([3]; listed as 33): 28%; IC50 ([4]; Table S2, 4-MU alpha glucoside substrate, listed as 33, read-out: IC50 on rhGAA): 540 nM; IC50 ([5]; Table S2, 4-MU alpha glucoside substrate, listed as 33, read-out: IC50 on GANAB): 16000 nM
CC(C)=CCC/C(C)=C/CC/C(C)=C/COCCCCCN1C[C@H](O)[C@@H](O)[C@H](O)[C@H]1CO [#ID 90] | 6.8 | 490 | 2500 | –
CC(C)(C)COCCOCCN1C[C@H](O)[C@@H](O)[C@H](O)[C@H]1CO [#ID 89] | 24 | 730 | 1700 | –
OC[C@@H]1[C@@H](O)[C@H](O)[C@@H](O)CN1CCCCCOCc1ccc(-c2ccc3c(c2)OCCO3)cc1 [#ID 324] | 0.9 | 12 | 570 | –
OC[C@@H]1[C@@H](O)[C@H](O)[C@@H](O)CN1CCCCCOCc1ccc(-c2ccc(Br)cc2)cc1 [#ID 348] | 3.1 | 23 | 610 | –
